One molecule from US11712429B2, “Low eructation composition and methods for treating and/or preventing cardiovascular disease in a subject with fish allergy/hypersensitivity” (Amarin Pharmaceuticals Ireland Limited, priority 2010, dated 2023) can be followed below.

The subject of data set [1] is individuals with Huntington disease. The data set is described as follows: Huntington disease trial (TREND-HD): total motor score 4 of the Unified Huntington's Disease Rating Scale. The class given is in vivo, human. From the text: Eligible study participants provided written consent.
On the set-up of data set [2]: species or system human. Conditions: in vivo. The procedure:
A phase I, multiple dose pharmacokinetic study in healthy male volunteers was carried out at a single center. Twenty-four subjects were divided into two treatment groups of 12 subjects each (groups A and B). Both groups received the same total daily dose of AMR101 but the dosing regiments were different. All subjects received a single oral dose of 2 g AMR101 on Day 1. Treatment Group A received 28 continuous once daily doses of 2 g AMR101. Treatment Group B received 27 continuous twice daily doses of 1 g AMR101 and a single dose of 2 g of AMR101 on day 30.
Levels of EPA and other essential fatty acids were determined in plasma and red blood cells. Blood samples for pharmacokinetic analysis were taken at the following time points for Treatment groups A and B:
Days 9, 16, 23: pre morning dose;
Days 37, 44, 58: post last dose.
A first Interim Report presents the following pharmacokinetic results for Treatment Group B:
Red cell—Day 1 (Pre-dose and 36 h), Day 30 (1 h post-dose), Day 37, Day 44, Day 58.

For data set [3], the system named is subjects with age-associated impairment (AAMI). Kind of data set: CDR computerized cognitive test battery, 6-week placebo-controlled dose-ranging study. The class given is in vivo, human. The procedure:
A single center, double blind, randomized, parallel-group, placebo controlled dose-ranging study of E-EPA in subjects with age-associated impairment (AAMI) was performed. The primary goal was to examine the effect of ethyl-EPA versus placebo on cognitive performance in subjects with AAMI as measure by the power of attention tasks in a computerized test batter over a period of 6 weeks. Secondary objectives were to:
(1) examine the effect of E-EPA versus placebo over 6 weeks on the following tests in the computerized cognitive battery: Continuity of attention tasks; Quality of working memory tasks; Quality of episodic memory tasks; Speed of attention tasks;
The study plan was to enroll 96 subjects who would be randomly allocated to 1 of 4 possible treatment groups for 6 weeks, in a balanced block design (24 subjects per group), as follows: • 1. 1 g ethyl-EPA daily • 2. 2 g ethyl-EPA daily • 3. 4 g ethyl-EPA daily • 4. Placebo (paraffin oil) daily
Ethyl-EPA was provided as 500 mg soft gel capsules providing ethyl-EPA of >96% purity, 0.25% to 0.38% by weight ethyl octadecatetraenoate, 0.075% to 0.15% by weight ethyl nonaecapentaenoate, 0.25% to 0.35% by weight ethyl arachidonate, 0.3% to 0.4% by weight ethyl eicosatetraenoate (ETA-E), 0.075% to 0.15% ethyl heneicosapentaenoate and 0.2% dl-[…]-tocopherol as an antioxidant. Matching placebo capsules contained […] of liquid paraffin and 0.2% dl-[…]-tocopherol. The placebo group was further randomized so that an equal number of subjects (8) was allocated 1 g, 2 g or 4 g placebo. Study drug was taken twice daily (BID) as a divided dose (e.g. for the 1 g dose, 500 mg was given in the morning and a further 500 mg was given in the evening) with a light snack or meal.
The study consisted of a screening visit, a training visit and 4 study visits. At the screening visit, subjects' eligibility was determined through cognitive tests (verbal paired associated learning [PAL] subscale, vocabulary subtest, Memory Assessment Clinics Questionnaire [MAC-Q], mini mental state evaluation [MMSE] and MINI [mini international neuropsychiatirc interview; sections 1 and 2 of Diagnostic and Statistical Manual of Mental Disorders, 4th Ed. (DSM-IV) plus dysthymia]), haematology, clinical chemistry and 12-lead electrocardiogram (ECG). At the training visit, subjects were shown how to use the CDR computerized system. Subjects took study drug for 6 weeks and on Days 0, 14, 28 and 42, subjects underwent the CDR cognitive test battery.
A selection of tasks from the CDR computerized cognitive assessment system were administered (Appendix 8 of protocol) at Visit 2 (training visit), Visit 3 (baseline), Visit 4 (Day 14), Visit 5 (Day 28) and Visit 6 (Day 42). Parallel forms of the tests were presented at each testing session. All tasks were computer-controlled, the information presented on high resolution monitors, and the responses recorded via a response model containing 2 buttons 1 marked ‘no’ the other ‘yes’. Five CDR composite scores were used as the primary/secondary outcome variables.
Summary statistics were provided for the ITT and Study PP Populations separately for all composite scores, major and supportive variables. Summary statistics were performed for both the unadjusted and difference from baseline data (i.e. the difference from the time matched pre-dose assessments on Day 0). Summary statistics were calculated by treatment, day and time-point. The summary statistics comprised n, mean, median, SD, standard error of mean (SEM), minimum and maximum values.
Difference from baseline data for each major variable was evaluated by an Analysis of Covariance (ANCOVA) using SAS® PROC MIXED Version 8.2.
Fixed effects for treatment, day, time point, treatment by day, treatment by time point, treatment by day by time-point were fitted. Subject within treatment was fitted as a repeated effect using the repeated statement. The compound symmetry covariance structure was used. […]

One may read the Tmax as the time from dosing to the highest level. As for `CC/C=C\C/C=C\C/C=C\C/C=C\C/C=C\CCCC(=O)OCC` [AMR101, all-cis eicosa-5,8,11,14,17-pentaenoic acid ethyl ester], the “Change in total motor score 4 at 12 months (mean)” value in data set [1] (All Study Participants n = 316, baseline 25.2, p 0.02) is listed as 0.0; in data set [1] (Study Participants with CAG < 45, n = 221, baseline 24.9, p 0.004), −1.2. The “Change in total motor score 4 at 6 months (mean)” value in data set [1] (All Study Participants n = 316, baseline 25.2, p 0.20) worked out at 0.2; in data set [1] (Study Participants with CAG < 45, n = 221, baseline 24.9, p 0.70), 0.0. Besides, in data set [2] (po), the “plasma lipid EPA levels at 48 hours post-administration” value was “remaining above baseline”. Besides, in data set [2] (male, human), the “Tmax” value is 4.64 h. The “time of maximum plasma lipid EPA values” in data set [2] (male, human, po) stood at 5 h. Also, the “Choice Reaction Time” value in data set [3] (1 and 4 g ethyl-EPA on Day 42, versus placebo) is listed as “some trends for benefit”; in data set [3] (ethyl-EPA 1 g and 2 g on Day 28, versus placebo, no clear treatment-related pattern), “statistically significant benefits”. The “Continuity of Attention” value in data set [3] (2 g ethyl-EPA, only visible in the ITT population) is “overall decrease”; in data set [3] (ethyl-EPA vs placebo, 6 weeks) it was “did not show a difference”. The “Speed of Memory and subtasks (Spatial and Numeric Working Memory Speeds, Word and Picture Recognition Speed)” value in data set [3] (Ethyl-EPA vs placebo, F-ratio statistics) is recorded as “no differences in performance”. Further, in data set [3] (active treatment versus placebo, no obvious treatment-related pattern), the “Digit Vigilance Targets Detected” value was “isolated decreases”. In addition, in data set [3] (active treatment vs placebo), the “Self-rated Calmness” value is “no difference in ratings”. In data set [3] (ethyl-EPA 1, 2, 4 g daily vs placebo, 6 weeks, ANCOVA), the “Power of Attention” value is recorded as “no statistically significant effect of treatment”. The “Quality of Working Memory” value in data set [3] (ethyl-EPA 1 g and 2 g versus placebo on Days 14 and 28, judged due to chance) is listed as “isolated statistically significant decreases”. Besides, in data set [3] (ethyl-EPA 2 g on Day 28, judged unlikely treatment-related), the “Self-rated Contentment” value is “statistically significant decreases in ratings”. The “Quality of Episodic Secondary Memory” value in data set [3] (ethyl-EPA versus placebo at various time-points, judged unlikely to be treatment effect) is on record as “statistically significant decreases”. In addition, the “Self-rated Alertness” value in data set [3] (ethyl-EPA vs placebo) was “no apparent difference in ratings”. For the same molecule, the “Reaction times in the attention tasks (Power of Attention, Simple Reaction Time, Choice Reaction Time)” value in data set [3] (post-hoc analysis, ethyl-EPA 4 g vs corresponding placebo) is listed as “improved the subjects' reaction times”.
